Values of other authors, collected in patent publication US11599023B2, “Photosensitive resin composition, organic EL element barrier rib, and organic EL element” (SHOWA DENKO K.K., priority 2018, dated 2023).
Read-outs that look alike come from different tables or passages of the source.

Experiments:
[1] = not given; remark: listed apart in the source
[2] = Table 1, at 25° C., cited in Scifinder
[3] = Table 2, of the low molecular weight organic compound (B), cited in Scifinder
[4] = Table 1, at 20° C. and 1 atm, cited in Scifinder
[5] = at 20° C. and 1 atm, SciFinder database

Compound | pKa [2] | pKa [3] | pKa (at 25° C., SciFinder database) | Molar volume [1, 4] | Molar volume [1, 3] | Molar volume [1, 5]
Oc1ccc(O)c(O)c1 [1,2,4-Benzenetriol] | 9.58 | 9.58 | 9.58 | 84.7 cm^3/mol | 84.7 cm^3/mol | 84.7 cm^3/mol
O=C(c1ccc(O)cc1)c1ccc(O)c(O)c1O [2,3,4,4′-Tetrahydroxybenzophenone, 2,3,4,4′-Tetrahydroxybenzophenone, reference compound] | 7.38 | 7.38 |  | 161.2 cm^3/mol | 161.2 cm^3/mol | 
O=C(O)c1ccc(O)c(O)c1O [2,3,4-Trihydroxybenzoic acid] | 3.30 | 3.30 | 3.3 | 97.2 cm^3/mol | 97.2 cm^3/mol | 97.2 cm^3/mol
O=C(O)c1cccc(O)c1O [2,3-Dihydroxybenzoic acid] | 2.96 | 2.96 | 2.96 | 98.8 cm^3/mol | 98.8 cm^3/mol | 98.8 cm^3/mol
O=C(O)c1ccc(O)cc1O [2,4-Dihydroxybenzoic acid] | 3.32 | 3.32 | 3.32 | 98.8 cm^3/mol | 98.8 cm^3/mol | 98.8 cm^3/mol
O=C(O)c1cc(O)ccc1O [2,5-Dihydroxybenzoic acid] |  |  |  | 98.8 cm^3/mol | 98.8 cm^3/mol | 98.8 cm^3/mol
O=C(O)c1cc(O)cc(O)c1 [3,5-Dihydroxybenzoic acid] | 3.96 | 3.96 | 3.96 | 98.8 cm^3/mol | 98.8 cm^3/mol | 98.8 cm^3/mol
O=C(O)c1cc(O)c(O)c(O)c1 [Gallic acid] |  |  |  | 97.2 cm^3/mol | 97.2 cm^3/mol | 97.2 cm^3/mol
O=C(O)c1cccc(C(=O)O)c1C(=O)O [Hemimellitic acid] |  |  |  | 127.0 cm^3/mol | 127.0 cm^3/mol | 127 cm^3/mol
Oc1ccc(O)c2c(O)c3ccccc3c(O)c12 [Leucoquinizarin, reference compound] | 8.11 | 8.11 |  | 151.3 cm^3/mol | 151.3 cm^3/mol | 
O=C1OC(c2ccc(O)cc2)(c2ccc(O)cc2)c2ccccc21 [Phenolphthalein, reference compound] | 9.23 | 9.23 |  | 229.7 cm^3/mol | 229.7 cm^3/mol | 
O=C(O)c1ccccc1C(c1ccc(O)cc1)c1ccc(O)cc1 [Phenolphthalin, reference compound] | 3.96 | 3.96 |  | 242.0 cm^3/mol | 242.0 cm^3/mol | 
Oc1cc(O)cc(O)c1 [Phloroglucinol] | 9.06 | 9.06 | 9.06 | 84.7 cm^3/mol | 84.7 cm^3/mol | 84.7 cm^3/mol
CCCOC(=O)c1cc(O)c(O)c(O)c1 [Propyl gallate, reference compound] |  |  |  | 155.6 cm^3/mol | 155.6 cm^3/mol | 
Oc1cccc(O)c1O [Pyrogallol] |  |  |  | 84.7 cm^3/mol | 84.7 cm^3/mol | 84.7 cm^3/mol
O=C(O)c1cc(C(=O)O)c(C(=O)O)cc1C(=O)O [Pyromellitic acid, reference compound] |  |  |  | 139.5 cm^3/mol | 139.5 cm^3/mol | 
Oc1ccccc1O [catechol] |  |  |  |  |  | 86.2 cm^3/mol
Oc1ccc(O)cc1 [hydroquinone] |  |  | 9.58 |  |  | 86.2 cm^3/mol
O=C(O)c1cccc(C(=O)O)c1 [isophthalic acid] |  |  |  |  |  | 114.4 cm^3/mol
O=C(O)c1ccccc1C(=O)O [phthalic acid] |  |  |  |  |  | 114.4 cm^3/mol
Oc1cccc(O)c1 [resorcinol] |  |  | 9.45 |  |  | 86.2 cm^3/mol
O=C(O)c1ccc(C(=O)O)cc1 [terephthalic acid] |  |  |  |  |  | 114.4 cm^3/mol
O=C(O)c1ccc(C(=O)O)c(C(=O)O)c1 [trimellitic acid] |  |  |  |  |  | 127.0 cm^3/mol
O=C(O)c1cc(C(=O)O)cc(C(=O)O)c1 [trimesic acid] |  |  |  |  |  | 127.0 cm^3/mol
